Test results taken from patent US6870029B2, “Method of diagnosing and treating gliomas” (priority 1995, dated 2005).
Several values for one entry are separate records, joined by “and”; a condition that tells them apart may be missing. Identical values can stand only once. Like-named read-outs stand apart in the source and are kept apart here.

Experiments:
astrocytoma cells = assay: Proliferation assay, 3H-thymidine incorporation; format: cell-based, human; conditions: 24 hour incubation, vs untreated control
Experimental: Proliferation was studied quantitatively by determining incorporation of ^3H-thymidine. In brief, cells were incubated for 24 hours in the continuous presence or absence of Ara-C (cytosine arabinoside, 10 μM), DIDS (200 μM), DNDS (200 μM), zinc (200 μM) or chlorotoxin (600 nM). Cells were incubated with 1 μCi/ml radiolabelled thymidine ([methyl-^3H]thymidine) for the final 4 hours (at 37° C.). Culture dishes were rinsed three times with ice-cold PBS and solublized with 0.3N NaOH for 30 minutes at 37° C. One aliquot ([…]) was used for cell protein determination using the bicinchroninic assay (BCA; Pierce Rockford, Ill.). The remaining cell suspension was mixed with Ultima Gold, and radioactivity was determined with a scintillation counter. The results were expressed as cpm/μg protein.
Given that these Cl^− currents were consistently present in all astrocytoma cells tested from both primary cultures of surgical specimens and from established human astrocytoma cell lines, whether Cl^− currents influence astrocytoma proliferation was examined. Although the effects of Cl^− channel blockade on cell proliferation have been reported in Schwann cells (40) and in B lymphocytes (7), the importance of Cl^− ion channels in glia cells has never been shown. Cells were cultured in the continuous presence of the anti-mitotic agent Ara-C (10 μM), DIDS (200 μM), DNDS (200 μM), Zinc (200 μM), or chlorotoxin (600 nM) and compared the rate of proliferation to untreated (control) sister cultures. Cells were treated at 2 days in culture (DIC) and proliferation was assayed 24 hours later, at 3 DIC, a period of high proliferation of untreated control cultures. As expected, incubation in the anti-mitotic agent Ara-C led to a 70% decrease in proliferation (SD=1.3309, N=17).

[1] = test system: Glioma Chloride Channel (GCC); format: cell-based, human; conditions: for reversibility of current block: after bath application, short exposure times for DIDS and DNDS; for IC50: electrophysiologically determined, read-out: IC50 for inhibition of GCC currents
Source text: Current and voltage recordings were obtained using standard whole-cell patch-clamp techniques with an Axopatch-1D amplifier (Axon Instruments). Patch-pipettes were made from thin-walled borosilicate glass (WPI, TW150F-40) o.d. 1.5 mm, i.d. 1.2 mm and were filled with a solution containing (in mM): KCl 145, MgCl2 1, CaCl2 0.2, EGTA 10, Hepes 10, pH adjusted to 7.4 using Tris, unless otherwise noted. Pipettes were not fire-polished and typically had resistances between 2-5MΩ. Cells were continuously superperfused with saline solution, allowing for rapid (<30 seconds) exchange of bath volume. The standard bath solution contained, in mM: NaCl 122.6, KCl 5, MgCl2 1.2, CaCl2 1.0, Na2HPO4 2.0, NaH2PO4 0.4, NaHCO3 25.0, Na2SO4 1.2, Glucose 10.5 (bubbled with 5% CO2/95% O2). Drugs used to block ionic conductances were prepared freshly as stock solutions for each experiment and added to bath solution. Osmolality was measured with a vapor pressure osmometer (Wescor, Logan, Utah) and adjusted to 308-312 mOsms.
For whole-cell recordings, cell capacitance compensation and series resistance compensation were used to minimize voltage errors. The amplifier reading of capacitance was used as the value for the whole-cell membrane capacitance. Series resistances, monitored at regular intervals throughout each experiment, were usually 5-10 MΩ, and series resistance compensation was typically set to ˜80%. Entrance potential, read from the amplifier at the time of entering the whole-cell configuration, was used to determine each cell's resting potential. Voltage-clamp recordings were used to search for voltage-activated currents and stimulation profiles were altered to fully activate chloride channels (pulses from −105 to 195 mV). Where indicated, P/4 leak subtraction was obtained using hyperpolarizing voltage steps to obtain leak currents. Current reversal potential (voltage at which I=0) was determined from IV plots in which tail current amplitudes were plotted as a function of voltage. Effects of channel blockers were assessed by comparing current traces, entrance potential, and reversal potential prior to and following drug application. Snap photographs were taken of each recorded cell using a CCD camera and a video printer for cataloging of cell size, location, and morphology. Recordings were made at room temperature, typically 20-25° C.
Chlorotoxin is a protein having 36 amino acids that is derived from scorpion venom toxin that was originally described as a blocker of small conductance Cl^− channels in epithelial cells (8).
For the following studies, the electrophysiology format was as follows: standard current and voltage recordings were obtained using the whole-cell patch-clamp technique with an Axopatch-1D amplifier (Axon Instruments). Cells were continuously superperfused with bicarbonate-buffered saline at room temperature containing, in mM: NaCl 122.6, KCl 5, MgCl2 1.2, CaCl2 1.0, Na2HPO4 2.0, NaH2PO4 0.4, NaHCO3 25.0, Na2SO4 1.2, Glucose 10.5 (bubbled with 5% CO2). Electrodes (WPI, TW150F-40) o.d. 1.5 mm, i.d. 1.2 mm were filled with (in mM): KCl 145, MgCl2 1, CaCl2 0.2, EGTA 10, Hepes 10, pH adjusted to 7.4 using Tris, unless otherwise noted. Entrance potential, read from the amplifier at the time of entering the whole-cell configuration, was used to determine each cell's resting potential. Voltage-clamp recordings were used to search for voltage-activated currents and stimulation profiles were altered to fully activate chloride channels (pulses from −120 to 120 mV).

normal human glial cells = assay: 125[I]-chlorotoxin binding to non-tumor cells; conditions: normal human glial cells and mixed brain cell cultures
Experimental: Therefore, binding affinity was determined using (^125[I]-Ctx) radiolabeled with ^125[I]-sodium iodide by the chloramine-T method.

glioma cells = assay: Immunotoxin (saporin) killing targeted to the Ctx binding site; format: cell-based, human; conditions: pre-treatment of cultures with 6 μM
Experimental: FIG. 19 show the glioma cells were exposed to 600 nM Ctx-GST followed by a mouse aGST and a goat anti-mouse antibody conjugated to saporin.
Using this approach, glioma cells were first treated with Ctx-GST, followed by a mouse anti-GST monoclonal antibody and lastly a goat anti-mouse antibody conjugated to saporin.

[2] = applied to the cytosolic face, 200 μM

Compound: Nc1ccn([C@@H]2O[C@H](CO)[C@@H](O)[C@@H]2O)c(=O)n1 [Ara-C, cytosine arabinoside]
- decrease in proliferation (3H-thymidine incorporation) (astrocytoma cells; 10 μM): 70%

Compound: O=S(=O)(O)c1cc(N=C=S)ccc1C=Cc1ccc(N=C=S)cc1S(=O)(=O)O [DIDS, 4,4′-Diisothiocyanostilbene-2,2′-disulfonic acid]
- reversibility of current block [1]: partly reversible
- block of currents [1, 2]: 50%±10.9
- decrease in proliferation (3H-thymidine incorporation) (astrocytoma cells; 200 μM): 16.4%

Compound: O=[N+]([O-])c1ccc(C=Cc2ccc([N+](=O)[O-])cc2S(=O)(=O)O)c(S(=O)(=O)O)c1 [DNDS, 4,4′-Dinitrostilbene-2,2′-disulfonic acid]
- reversibility of current block [1]: partly reversible
- block of currents [1, 2]: 62%
- decrease in proliferation (3H-thymidine incorporation) (astrocytoma cells; 200 μM): 38.2%

Compound: [Cd] [cadmium]
- block of currents ([1]; 25 mM as printed): 42%
- decrease in peak currents ([1]; bath application of 25 μM): 42%±18.5

Compound: [Zn] [zinc]
- decrease in proliferation (3H-thymidine incorporation) (astrocytoma cells; 200 μM): 72.6%

Compound: chlorotoxin
- specific binding (normal human glial cells): no specific Ctx binding
- reversibility of current block [1]: partially reversible
- block of Cl− currents ([1]; applied to the cytoplasmic face, 2.5 μM): 60.44%
- decrease of outward currents ([1]; bath application of 590 nM, STTG1 cells, voltage steps −105 to +195 mV): 81%
- IC50 ([1]; listed as Ctx): ~950 nM
- IC50 [1]: 950 nM
- increase in proliferation (3H-thymidine incorporation) (astrocytoma cells; 600 nM): 37.8% and 37%
- prevention of immunotoxin cell death (glioma cells): largely prevented

Compound: glutathione-S-transferase [GST]
- reduction in Cl− currents [1]: ineffective
